This is an account of results in patent US5229123A, “Antifungal agents” (Hoffmann-La Roche Inc., priority 1991, dated 1993).

Read-outs that look alike come from different tables or passages of the source.

One series has as its target T1, Chs 1 (Saccharomyces cerevisiae, UniProt P08004).
T1 sequence (P08004 1-1131): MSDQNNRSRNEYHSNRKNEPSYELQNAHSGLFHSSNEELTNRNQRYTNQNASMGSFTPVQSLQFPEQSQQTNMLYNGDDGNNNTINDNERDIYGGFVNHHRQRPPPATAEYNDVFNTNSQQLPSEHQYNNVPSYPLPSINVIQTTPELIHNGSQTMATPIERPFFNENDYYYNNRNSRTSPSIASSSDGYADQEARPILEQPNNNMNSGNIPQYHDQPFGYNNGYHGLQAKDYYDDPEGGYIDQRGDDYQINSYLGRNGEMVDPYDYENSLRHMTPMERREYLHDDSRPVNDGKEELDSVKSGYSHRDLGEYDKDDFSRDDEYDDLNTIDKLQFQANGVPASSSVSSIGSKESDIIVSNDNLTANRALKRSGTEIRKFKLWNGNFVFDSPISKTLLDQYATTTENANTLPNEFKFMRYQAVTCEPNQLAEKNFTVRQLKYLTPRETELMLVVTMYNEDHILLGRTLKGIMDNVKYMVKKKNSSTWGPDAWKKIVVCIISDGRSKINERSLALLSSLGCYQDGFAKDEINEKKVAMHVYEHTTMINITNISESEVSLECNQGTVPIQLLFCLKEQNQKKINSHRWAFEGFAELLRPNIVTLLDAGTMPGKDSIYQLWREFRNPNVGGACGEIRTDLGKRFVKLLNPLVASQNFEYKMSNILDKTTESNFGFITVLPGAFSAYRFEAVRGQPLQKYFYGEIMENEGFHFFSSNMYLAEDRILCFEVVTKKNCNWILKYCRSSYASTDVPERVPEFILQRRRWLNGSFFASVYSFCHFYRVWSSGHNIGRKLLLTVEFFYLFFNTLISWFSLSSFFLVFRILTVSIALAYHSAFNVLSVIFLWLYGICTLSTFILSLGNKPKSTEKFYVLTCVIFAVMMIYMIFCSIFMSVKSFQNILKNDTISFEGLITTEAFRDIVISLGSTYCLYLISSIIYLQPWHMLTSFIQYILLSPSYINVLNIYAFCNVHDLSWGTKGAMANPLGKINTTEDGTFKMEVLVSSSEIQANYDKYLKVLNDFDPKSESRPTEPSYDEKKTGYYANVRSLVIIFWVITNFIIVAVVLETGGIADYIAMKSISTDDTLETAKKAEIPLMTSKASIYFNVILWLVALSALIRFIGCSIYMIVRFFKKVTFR
Nature of the series: Inhibitory activity against Chs 1 (chitin formation from [14C]-UDP-N-acetylglucosamine in permeabilized overproducer cells). It counts as biochemical. On the procedure:
(§1) Inhibitory activity of Xanthofulvin against Chs 1 and Chs 2 from Saccharomyces cerevisiae was measured respectively.
(§2) The overproducer employed for Chs 1 was Saccharomyces cerevisiae (ura3) harbouring plasmid (CHSl, URA3). The cells were permeabilized with 0.5% digitonin for 15 min at 30° C., followed by treatment with trypsin at the final concentration of 100 μg/ml for 15 min at 30° C. After addition of trypsin inhibitor from soybean, 50 μl of 2.5×10^7 cells/ml was incubated for 1 hr at 30° C. with 40 μl of assay solution containing 50 mM MES pH 6.5, 5 mM Mg(OAc)2, 32 mM N-acetylglucosamine and 0.1 mM [^14 C]-UDP-N-acetylglucosamine, and 10 μl of sample solution. Reaction was terminated with addition of TCA and cells are collected on the filter and washed with 70% aqueous ethanol containing 0.3M acetic acid. Radioactivity of cells is counted with a liquid scientillation counter. Amount of chitin formed was determined on the basis of radioactivity incorporated into the cells (S. J. Silverman, A. Sburlati, M. J. Slater and E. Cabib. Proc. Natl. Acad. Sci. USA, 85, 4735-4739 (1988)).

For the next series, the target named is T2, Chs 2 (Saccharomyces cerevisiae, UniProt P14180).
T2 construct: digitonin-permeabilized, trypsin-treated cells
In words: Inhibitory activity against Chs 2 (chitin formation from [14C]-UDP-N-acetylglucosamine in permeabilized overproducer cells). It counts as biochemical. The method, then:
as §1, §2
Overproducer for Chs 2 was a Saccharomyces cerevisiae strain of disrupted Chs 1 gene (chs1:: URA3, leu2 ) with plasmid (CHS2, LEU2). Assay method was the same as the one for Chs 1 described above except for assay solution. Assay solution for Chs 2 contained 30 mM Tris (pH 7.5), 2.5 mM Co(OAc)2, 32 mM N-acetylglucosamine and 0.1 mM [^14 C]-UDP-N-acetylglucosamine (See: Silverman et al. supra).

For series [1], the target named is chitin synthase 1 (Chs 1) (Saccharomyces cerevisiae, UniProt P08004). The note with it: literature, E. Cabib 1991; cited from earlier work.
A short description of another series: Acute toxicity. To be noted: in vivo.
Series [2] is described as follows: Solubility (physico-chemical properties). It counts as physicochemical. An excerpt:
The physico-chemical properties of Xanthofulvin obtained as described in the Example given hereinbelow are as follows: […]

T2 sequence (P14180 whole entry): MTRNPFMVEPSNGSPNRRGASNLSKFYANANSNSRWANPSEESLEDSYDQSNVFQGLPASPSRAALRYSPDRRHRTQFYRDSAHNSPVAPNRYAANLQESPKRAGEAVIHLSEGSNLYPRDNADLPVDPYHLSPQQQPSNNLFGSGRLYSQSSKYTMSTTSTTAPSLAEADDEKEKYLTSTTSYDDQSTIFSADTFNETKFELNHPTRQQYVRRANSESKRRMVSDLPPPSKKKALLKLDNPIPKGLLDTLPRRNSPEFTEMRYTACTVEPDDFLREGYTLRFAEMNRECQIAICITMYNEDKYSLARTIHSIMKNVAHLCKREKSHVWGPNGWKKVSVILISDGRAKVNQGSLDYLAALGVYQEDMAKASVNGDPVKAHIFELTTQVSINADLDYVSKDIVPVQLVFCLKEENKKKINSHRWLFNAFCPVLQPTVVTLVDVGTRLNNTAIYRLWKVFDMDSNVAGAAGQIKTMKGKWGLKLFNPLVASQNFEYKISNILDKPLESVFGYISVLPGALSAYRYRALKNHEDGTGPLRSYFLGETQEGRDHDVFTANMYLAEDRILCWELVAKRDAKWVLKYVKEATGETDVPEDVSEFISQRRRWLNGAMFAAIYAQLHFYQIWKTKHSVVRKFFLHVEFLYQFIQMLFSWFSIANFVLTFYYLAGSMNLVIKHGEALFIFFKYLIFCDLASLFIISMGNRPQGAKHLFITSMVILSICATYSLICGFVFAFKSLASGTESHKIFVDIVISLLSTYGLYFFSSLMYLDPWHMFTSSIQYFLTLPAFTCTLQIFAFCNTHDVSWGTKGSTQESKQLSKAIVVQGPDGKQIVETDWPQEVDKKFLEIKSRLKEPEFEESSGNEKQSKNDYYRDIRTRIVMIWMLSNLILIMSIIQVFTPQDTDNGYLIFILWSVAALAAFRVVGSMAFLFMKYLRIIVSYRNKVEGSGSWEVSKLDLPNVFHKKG

The term IC50 denotes the concentration that gives 50% inhibition. On to `NC(=O)OC[C@H](O)[C@@H](O)[C@H](N)C(=O)N[C@H](C(=O)O)[C@H]1O[C@@H](n2cc(C(=O)O)c(=O)[nH]c2=O)[C@H](O)[C@@H]1O` [polyoxin D, reference compound], for which the IC50 against Chs 1 worked out at 260 nM; on Chs 2, 10300 nM. Further, the “Inhibition of chitin synthase 1 versus Chs 2 (in words)” value in series [1] is given as “inhibit chitin synthase 1 (Chs 1) rather than Chs 2”.
Take `CC(=O)c1c(C)c(/C(O)=C2\COc3cc(O)c(O)c(C(=O)O)c3C2=O)cc2c(=O)c3c(C(=O)O)c(O)c(O)cc3oc12` [Xanthofulvin]: the IC50 at Chs 1 (Chs 1 overproducer, MES pH 6.5, Mg(OAc)2, 1 hr at 30° C., read-out: IC50 Chs 1) was greater than 200000 nM; at Chs 2 (Chs 2 overproducer, Tris pH 7.5, Co(OAc)2, read-out: IC50 Chs 2), 2200 nM. Moreover, the Acute toxicity result in the series “Acute toxicity” is listed as “not observed”. Moreover, the “Chs 2 inhibiting activity (in words)” value on Chs 2 (summary of Table 1) is given as “high Chs 2 inhibiting activity”. Also, the Solubility result is recorded as “Soluble” in series [2] (in DMSO), “Slightly soluble” in series [2] (in H2O), “Soluble” in series [2] (in MeOH) and “Insoluble” in series [2] (in n-hexane).
In the case of `C[C@@H]([C@H](N)C(=O)N[C@H](C(=O)O)[C@H]1OC(n2cc(C=O)nc2O)[C@H](O)[C@@H]1O)[C@H](O)c1ccc(O)cn1` (stereo partly drawn) [nikkomycin X], the “Inhibition of chitin synthase 1 versus Chs 2 (in words)” value in series [1] was “inhibit chitin synthase 1 (Chs 1) rather than Chs 2”.
